Laboratory results: US5079235A, “Antiviral compounds” (Burroughs Wellcome Co., priority 1986, dated 1992)

Key:
[1] = tested on: Human cytomegalovirus (HCMV); test: Human cytomegalovirus (HCMV) plaque reduction assay in MRC5 or Detroit 532 cells; assay type: cell-based; conditions: for IC50: Human betaherpesvirus 5, HCMV, MRC5 or Detroit 532 cells, plaque reduction
Protocol: Human cytomegalovirus (HCMV) is assayed in monolayers of either MRC5 cells (human embryonic lung) or Detroit 532 cells (human foreskin fibroblasts) in multiwell trays. Activity of compounds is determined in the plaque reduction assay, in which a cell monolayer is infected with a suspension of HCMV, and then overlaid with nutrient agarose in the form of a gel to ensure that there is no spread of virus throughout the culture. A range of concentrations of compound of known molarity was incorporated in the nutrient agarose overlay. Plaque numbers of each concentration are expressed as percentage of the control and a dose-response curve is drawn. From this curve the 50% inhibitory concentration (IC50) is estimated.

[2] = tested on: Varicella zoster virus (VZV); test: Varicella zoster virus (VZV) assayed in MRC5 cells, plaque reduction method without agarose overlay; assay type: cell-based; conditions: for IC50: Human alphaherpesvirus 3, MRC5 cells
[3] = Cell toxicity in Vero cell growth inhibition assay (MTT); assay type: cell-based; conditions: monkey; Vero cells, 50% inhibition of cell viability (MTT) at 96 hours; read-out: CCID50 at 96 hr
Protocol: Cell toxicity is assessed in a cell growth inhibition assay. Subconfluent cultures of Vero cells grown on 96-well microtiter dishes are exposed to different dilutions of drug, and cell viability determined daily on replicate cultures using uptake of a tetrazolium dye (MTT). The concentration required for a 50% inhibition of cell viability at 96 hours is termed CCID50.

[4] = tested on: vaccinia; conditions: in vitro; cited from earlier work
[5] = tested on: herpes simplex; conditions: in vitro; cited from earlier work

Row | SMILES | activity against CMV (in words) ([1]; CMV) | anti-VZV activity (in words) [2] | IC50 [2] [nM] | CC50 at 96 h [3] [µM] | IC50 [1] [µM] | antiviral activity against vaccinia (in words) [4] | antiviral activity against herpes simplex (in words) [5]
1 | C#Cc1cn([C@H]2C[C@H](O)[C@@H](CO)O2)c(=O)n(C(=O)c2ccccc2)c1=O [Example 1, 3-N-Benzoyl-2'-deoxy-5-ethynyluridine] | high activity against CMV | – | – | – | – | – | –
2 | CC#Cc1cn([C@H]2C[C@H](O)[C@@H](CO)O2)c(=O)nc1N [Example 2, 2'-Deoxy-5-propynylcytidine] | – | potent anti-VZV activity | 3300 | > 300 | > 20 | – | –
3 | CC#Cc1cn([C@H]2C[C@H](O)[C@@H](CO)O2)c(=O)n(C(=O)c2ccccc2)c1=O [Example 4, 3-N-Benzoyl-2'-deoxy-5-propynyluridine] | – | potent anti-VZV activity | 2200 | > 500 | 28.5 | – | –
4 | C#Cc1cn([C@H]2C[C@H](O)[C@@H](CO)O2)c(=O)[nH]c1=O [2'-deoxy-5-ethynyluridine] | – | – | – | – | – | did not demonstrate any effect of use in human medicinal chemotherapy | did not demonstrate any effect of use in human medicinal chemotherapy
